Test results taken from US12662489B2 (Sitryx Therapeutics Limited, priority 2023, dated 2026).

What was measured:
[1] = target: T1, MTHFD2 recombinant human enzyme (Homo sapiens, UniProt P13995); experiment: MTHFD2 inhibition assay (NAD(P)H-Glo luminescence); conditions: for MTHFD1/MTHFD2 IC50 ratio: selectivity of MTHFD2 inhibition over MTHFD1, band
T1 sequence (P13995 36-350): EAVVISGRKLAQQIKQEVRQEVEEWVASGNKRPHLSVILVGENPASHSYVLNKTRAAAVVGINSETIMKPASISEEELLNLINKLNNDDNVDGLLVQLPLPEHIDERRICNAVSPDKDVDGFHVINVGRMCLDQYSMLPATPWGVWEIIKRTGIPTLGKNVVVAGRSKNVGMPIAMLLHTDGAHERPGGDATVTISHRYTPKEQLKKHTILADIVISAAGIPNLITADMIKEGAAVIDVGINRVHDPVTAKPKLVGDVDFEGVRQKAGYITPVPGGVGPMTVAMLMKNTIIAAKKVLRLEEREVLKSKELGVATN

[2] = target: T2, MTHFD1 recombinant human enzyme (Homo sapiens, UniProt P11586); experiment: MTHFD1 inhibition assay (NAD(P)H-Glo luminescence); conditions: MTHFD1 IC50, recombinant human enzyme 200 nM, NADP, band
T2 sequence (P11586 2-291 limits assumed): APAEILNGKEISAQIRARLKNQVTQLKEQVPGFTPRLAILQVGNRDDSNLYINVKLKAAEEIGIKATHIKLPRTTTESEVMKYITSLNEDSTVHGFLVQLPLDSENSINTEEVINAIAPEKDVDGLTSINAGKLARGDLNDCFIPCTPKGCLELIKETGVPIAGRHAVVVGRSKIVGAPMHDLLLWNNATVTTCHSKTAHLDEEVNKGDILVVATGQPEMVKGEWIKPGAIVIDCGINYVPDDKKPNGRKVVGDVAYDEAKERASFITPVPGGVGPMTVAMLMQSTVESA

Row | Structure (SMILES) | IC50 [1] | MTHFD1/MTHFD2 IC50 ratio [1] | IC50 [2]
1 | COC[C@H]1CN(c2ccc3c4c(c(=O)oc3c2C)CN(C(=O)c2cc(OC3CCCC3)c(C(=O)NS(=O)(=O)N(C)C)c(C(F)(F)F)c2)CC4)CCN1C [Example 117, (R)-2-(cyclopentyloxy)-N-(N,N-dimethylsulfamoyl)-4-(8-(3-(methoxymethyl)-4-methylpiperazin-1-yl)-7-methyl-5-oxo-1,3,4,5-tetrahydro-2H-chromeno[3,4-c]pyridine-3-carbonyl)-6-(trifluoromethyl)benzamide] | 100 to 1000 nM | H (>9.0 to 30) | 1000 to 5000 nM
2 | COC[C@H]1CN(c2ccc3c4c(c(=O)oc3c2C)CN(C(=O)c2ccc(C(=O)NS(=O)(=O)N3CCCC3)c(N(C)C)c2F)CC4)CCN1C [Example 139, (R)-2-(dimethylamino)-3-fluoro-4-(8-(3-(methoxymethyl)-4-methylpiperazin-1-yl)-7-methyl-5-oxo-1,3,4,5-tetrahydro-2H-chromeno[3,4-c]pyridine-3-carbonyl)-N-(pyrrolidin-1-ylsulfonyl)benzamide] | 100 to 1000 nM | G (^ 3 to 9.0) | 100 to 1000 nM
3 | COC[C@H]1CN(c2cc(C)c3c4c(c(=O)oc3c2C)CN(C(=O)c2ccc(C(=O)NS(=O)(=O)C3(C)CC3)c(OC3CCC3)c2F)CC4)CCN1C [Example 41, (R)-2-cyclobutoxy-3-fluoro-4-(8-(3-(methoxymethyl)-4-methylpiperazin-1-yl)-7,10-dimethyl-5-oxo-1,3,4,5-tetrahydro-2H-chromeno[3,4-c]pyridine-3-carbonyl)-N-((1-methylcyclopropyl)sulfonyl)benzamide] | 1 to 10 nM | G (^ 3 to 9.0) | 1 to 10 nM
4 | Cc1c(N2CCN(C)[C@@H](COC(C)C)C2)ccc2c3c(c(=O)oc12)CN(C(=O)c1ccc(C(=O)NS(=O)(=O)N2CCCC2)c(OC2CCC2)c1F)CC3 [Example 192, (R)-2-cyclobutoxy-3-fluoro-4-(8-(3-(isopropoxymethyl)-4-methylpiperazin-1-yl)-7-methyl-5-oxo-1,3,4,5-tetrahydro-2H-chromeno[3,4-c]pyridine-3-carbonyl)-N-(pyrrolidin-1-ylsulfonyl)benzamide] | 100 to 1000 nM | F (<3) | 100 to 1000 nM
5 | COC[C@H]1CN(c2cc(C)c3c4c(c(=O)oc3c2C)CN(C(=O)c2ccc(C(=O)NS(=O)(=O)C3(C)CC3)c(N3C5CCC3CC5)c2F)CC4)CCN1C [Example 73, (R)-2-(7-azabicyclo[2.2.1]heptan-7-yl)-3-fluoro-4-(8-(3-(methoxymethyl)-4-methylpiperazin-1-yl)-7,10-dimethyl-5-oxo-1,3,4,5-tetrahydro-2H-chromeno[3,4-c]pyridine-3-carbonyl)-N-((1-methylcyclopropyl)sulfonyl)benzamide] | 1 to 10 nM | – | 1 to 10 nM
6 | COC[C@H]1CN(c2cc(C)c3c4c(c(=O)oc3c2C)CN(C(=O)c2ccc(C(=O)NS(=O)(=O)N3CCCC3)c(N3CCC[C@H]3C)c2)CC4)CCN1C [Example 124, 4-(8-((R)-3-(methoxymethyl)-4-methylpiperazin-1-yl)-7,10-dimethyl-5-oxo-1,3,4,5-tetrahydro-2H-chromeno[3,4-c]pyridine-3-carbonyl)-2-((R)-2-methylpyrrolidin-1-yl)-N-(pyrrolidin-1-ylsulfonyl)benzamide] | 100 to 1000 nM | F (<3) | 100 to 1000 nM

The remaining lines, values ahead:

Row | IC50 [1] | MTHFD1/MTHFD2 IC50 ratio [1] | IC50 [2] | Structure (SMILES)
7 | 1 to 10 nM | F (<3) | 1 to 10 nM | COC[C@H]1CN(c2cc(C)c3c4c(c(=O)oc3c2C)CN(C(=O)c2cc(F)c(C(=O)NS(=O)(=O)N(C)C)c(N3CC5CC5C3)c2)CC4)CCN1C (stereo partly drawn) [Example 28, 2-(3-azabicyclo[3.1.0]hexan-3-yl)-N-(N,N-dimethylsulfamoyl)-6-fluoro-4-(8-((R)-3-(methoxymethyl)-4-methylpiperazin-1-yl)-7,10-dimethyl-5-oxo-1,3,4,5-tetrahydro-2H-chromeno[3,4-c]pyridine-3-carbonyl)benzamide]
8 | 1 to 10 nM | G (^ 3 to 9.0) | 10 to 100 nM | COC[C@H]1CN(c2cc(C)c3c4c(c(=O)oc3c2C)CN(C(=O)c2ccc(C(=O)NS(=O)(=O)N(C)C)c(N(C)C3CC3)c2)CC4)CCN1C [Example 84, (R)-2-(cyclopropyl(methyl)amino)-N-(N,N-dimethylsulfamoyl)-4-(8-(3-(methoxymethyl)-4-methylpiperazin-1-yl)-7,10-dimethyl-5-oxo-1,3,4,5-tetrahydro-2H-chromeno[3,4-c]pyridine-3-carbonyl)benzamide]
9 | 1 to 10 nM | – | 10 to 100 nM | COC[C@H]1CN(c2cc(C)c3c4c(c(=O)oc3c2C)CN(C(=O)c2ccc(C(=O)NS(=O)(=O)C3(C)CC3)c(N3CC5CC5C3)c2F)CC4)CCN1C (stereo partly drawn) [Example 71, 2-(3-azabicyclo[3.1.0]hexan-3-yl)-3-fluoro-4-(8-((R)-3-(methoxymethyl)-4-methylpiperazin-1-yl)-7,10-dimethyl-5-oxo-1,3,4,5-tetrahydro-2H-chromeno[3,4-c]pyridine-3-carbonyl)-N-((1-methylcyclopropyl)sulfonyl)benzamide]
10 | 1 to 10 nM | F (<3) | 1 to 10 nM | COC[C@H]1CN(c2ccc3c4c(c(=O)oc3c2Cl)CN(C(=O)c2ccc(C(=O)NS(=O)(=O)N(C)C)c(OC3CCCC3)c2F)CC4)CCN1C [Example 44, (R)-4-(7-chloro-8-(3-(methoxymethyl)-4-methylpiperazin-1-yl)-5-oxo-1,3,4,5-tetrahydro-2H-chromeno[3,4-c]pyridine-3-carbonyl)-2-(cyclopentyloxy)-N-(N,N-dimethylsulfamoyl)-3-fluorobenzamide]
11 | 1 to 10 nM | H (>9.0 to 30) | 10 to 100 nM | COC[C@H]1CN(c2cc(C)c3c4c(c(=O)oc3c2C)CN(C(=O)c2ccc(C(=O)NS(=O)(=O)N3CCCC3)c(N3CCC(F)(F)C3)c2)CC4)CCN1C [Example 92, (R)-2-(3,3-difluoropyrrolidin-1-yl)-4-(8-(3-(methoxymethyl)-4-methylpiperazin-1-yl)-7,10-dimethyl-5-oxo-1,3,4,5-tetrahydro-2H-chromeno[3,4-c]pyridine-3-carbonyl)-N-(pyrrolidin-1-ylsulfonyl)benzamide]
12 | 1 to 10 nM | F (<3) | 1 to 10 nM | COC[C@H]1CN(c2ccc3c4c(c(=O)oc3c2Cl)CN(C(=O)c2ccc(C(=O)NS(=O)(=O)N(C)C)c(O[C@@H]3C[C@@H]5C[C@@H]5C3)c2F)CC4)CCN1C [Example 61, 2-(((1R,3r,5S)-bicyclo[3.1.0]hexan-3-yl)oxy)-4-(7-chloro-8-((R)-3-(methoxymethyl)-4-methylpiperazin-1-yl)-5-oxo-1,3,4,5-tetrahydro-2H-chromeno[3,4-c]pyridine-3-carbonyl)-N-(N,N-dimethylsulfamoyl)-3-fluorobenzamide]
13 | 1 to 10 nM | G (^ 3 to 9.0) | 10 to 100 nM | COC[C@H]1CN(c2cc(C)c3c4c(c(=O)oc3c2C)CN(C(=O)c2ccc(C(=O)NS(=O)(=O)C3(C)CC3)c(N3CCC(C)(C)C3)c2)CC4)CCN1C [Example 87, (R)-2-(3,3-dimethylpyrrolidin-1-yl)-4-(8-(3-(methoxymethyl)-4-methylpiperazin-1-yl)-7,10-dimethyl-5-oxo-1,3,4,5-tetrahydro-2H-chromeno[3,4-c]pyridine-3-carbonyl)-N-((1-methylcyclopropyl)sulfonyl)benzamide]
